In patent publication US5618804A, “Methanediphosphonic acid derivative, process for production thereof and use for pharmaceuticals” (Toray Industries, Inc., priority 1992, dated 1997):

Columns and labels:
[1] = test system: osteoclasts; experiment: Inhibition of active-type vitamin D3-stimulated bone resorption (resorption pit formation on dentin slices); assay type: cell-based, mouse (ICR); details: 10 nM active-type vitamin D3, 4 days
Source text: In conditions of osteoporosis, it is thought that the balance between bone formation and bone resorption is lost, with bone resorption being accelerated. Bone resorption is thought to occur due to the activation and increase in the number of osteoclasts, and a model thereof is an experiment in which mouse osteocytes are planted on dentin slices, causing bone resorption due to the stimulation of active-type vitamin D3. Using this model, the bone resorption-inhibiting effects of the compounds according to the present invention were determined.
The femurs and tibias were separated from 10 to 15- day-old ICR mice, and minced in an α-MEM culture medium containing 5% fetal calf serum, and an osteoclast suspension was prepared containing bone marrow cells and bone matrix. The large bone fragments were removed using a nylon mesh, and the viable cells were stained using trypan blue staining, while the osteoclasts were stained using tartaric acid-resistant acidic phosphatase staining, and a cell suspension was prepared which contained the osteoclasts at a proportion of about 0.05-0.1%. The dentin was cut to thicknesses of 150 μm using a low-speed rotating diamond cutter, and punched with a puncher to the size of wells of a 96-well plate. The dentin slices were placed in a 96-well plate, and the cell suspension prepared as described above was placed thereupon to a concentration of 500 osteoclasts per well. As a stimulant, 10 nM active-type vitamin D3 was added thereto, and at the same time the preparations according to the present invention were added thereto to concentrations of 10 μM and 100 μM. The cells were cultured at 37° C. in 10% CO2 environment, and after 4 days' culture the resorption pits which formed on the dentin slices were stained with hematoxylin, and then observed under a microscope and counted. The rate of inhibition of resorption pit formation was calculated according to the following equation. [formula]
The results were indicated with "*" in cases where, based on statistical calculation using the Student t-test, the level of significance was P<0.05 and with "**" in cases where the level of significance was P<0.01 with respect to the active-type vitamin D3 -stimulated control group.

[2] = test system: adjuvant arthritis; experiment: Adjuvant arthritis test (foot edema and osteoclasia); assay type: in vivo, rat (7-week-old female Lewis rats); details: 20 mg/kg s.c., days 8-21; for Inhibition rate of osteoclasia with respect to control group: 22nd day, left and right hind legs, soft X-ray
[3] = test system: Mouse Macrophage Cell Line J774-1; experiment: Inhibition of IL-1 production by LPS-stimulated mouse macrophage cell line J774-1 (IL-1 activity by thymocyte proliferation); assay type: cell-based; details: 100 μM compound, 1 μg/ml LPS, 24 h, read-out: IL-1 production inhibition rate with respect to control group
Method: Effect Against Production of IL-1 by Mouse Macrophage Cell Line J774-1
With this cell line, the inhibitory effects to IL-1 production of the compounds according to the present invention were determined by the following procedure.
J774-1 cells were cultured in an RPMI-1640 culture medium containing 10% fetal calf serum and 50 μM of 2-mercaptoethanol, and prepared to a cell concentration of 2×10^5 cells/ml. The cell suspension was distributed into a 24-well plate to 1 ml per well, and cultured for 30 minutes. […]
A two-fold serial dilution was made of the above obtained sample in a 96-well multiplate to a volume of 50 μl per well, and 50 μl of the T cell suspension was added to each well. The T cells were cultured for 72 hours, and the IL-1 activity was determined by the rate of cell proliferation. The cell proliferation was calculated using as the value of the absorbance at 570 nm of the pigment produced upon reduction of 3-[4,5-dimethylthiazole-2-yl]-2,5-diphenyltetrazolium bromide by the mitochondria of the viable cells, added at 4 hours prior to completion of the culturing, with 100% proliferation defined as the maximum proliferation of T cells induced by recombinant human IL-1, 0% defined as proliferation with no addition of IL-1, and the units of the sample defined as the degree of dilution of the sample which caused 50% proliferation of the T cells. […]

[4] = test system: neutrophils; experiment: Inhibition of active oxygen release from fMLP-stimulated human neutrophils (CLA chemiluminescence); assay type: cell-based; details: 10 μm (so in the source)
Method: Neutrophils are known to ingest foreign bodies for their removal and to produce active oxygen and digestive enzymes, as a biological defense mechanism. However, during chronic inflammation, etc., the active oxygen and digestive enzymes produced by neutrophils also damage normal tissue, and are thought to further reinforce inflammation. Here, the effects of the compounds according to the present invention against the release of active oxygen from neutrophils were determined in the following manner.
Using 3.8% sodium citrate as an anticoagulant, 50 ml of blood was taken from a human vein. […] Of these neutrophils, 1×10^5 cells were incubated at 37° C. with […] of the stimulant, formyl-methionyl-leucyl-phenylalanine (fMLP), and at the same time the compounds according to the present invention were added thereto and the production of active oxygen was measured. For the measurement of the active oxygen, 2-methyl-6-phenyl-3,7-dihydroimidazo [1,2a]pyrazine-3-one (CLA) was reacted therewith resulting in excited carbonyl compounds, and utilizing the phenomenon whereby light is emitted at 380 nm during their transition to ground state, the maximum luminescence intensity was measured with a luminometer. The inhibition rate against active oxygen production was calculated according to the following equation. […]

[5] = test system: Rabbit cartilage cells; experiment: IL-1-inhibiting effect: proteoglycan degradation in IL-1-stimulated rabbit cartilage cells; assay type: cell-based, rabbit (New Zealand white); details: IL-1-stimulated (30 units/ml rhIL-1β), 100 μM compound, 24 h
Method: Rabbit cartilage cells are separated from knee joint and cultured. When they are stimulated with IL-1, proteoglycan, the main constituent glycoprotein of cartilage cells, is degraded. Using this consequence as an index, the IL-1-inhibiting effects of the compounds according to the present invention were determined in the following manner.
Three-week-old male New Zealand white rabbits weighing 250 g-300 g were sacrified under diethyl ether anesthesia, and their knee joints were separated. The cartilaginous sections were cut out from the knee joint with a scalpel, and then immersed in CMF solution containing 0.14M sodium chloride, 4 mM potassium chloride, 0.4 mM sodium dihydrogen phosphate, 12 mM sodium bicarbonate, 0.2 mM potassium dihydrogen phosphate and 11 mM glucose. The cartilage was placed in 0.1% EDTA and incubated at 37° C. for 20 minutes. The supernatant was removed off, 0.15% trypsin was added to the mixture, and then that was incubated at 37° C. for 60 minutes. The mixture was washed 3 times with CMF solution, and then placed in […] and further treated at 37° C. for 105 minutes. […]
Each of the obtained counts was divided by the count at the initial addition of inorganic sulfuric acid, and expressed as a percentage. […]

Row | Structure (SMILES) | Inhibition rate (resorption pit formation) with respect to control ([1]; 10 μM) [%] | Inhibition rate (resorption pit formation) with respect to control ([1]; 100 μM) [%] | Inhibition rate of osteoclasia with respect to control group [2] [%] | Inhibition rate of edema with respect to control group ([2]; left paw, 16th day) [%] | Inhibition rate of edema with respect to control group ([2]; left paw, 21st day) [%] | Inhibition rate of edema with respect to control group ([2]; right paw, 16th day) [%] | Inhibition rate of edema with respect to control group ([2]; right paw, 21st day) [%] | Inhibition rate of edema with respect to control group ([2]; left paw, 17th day) [%] | Inhibition rate of edema with respect to control group ([2]; right paw, 17th day) [%] | inhibition at 100 µM [3] [%] | Active oxygen production inhibition rate [4] [%] | proteoglycan count in cell layer relative to count at initial addition of inorganic sulfuric acid ([5]; not stimulated 0.45, IL-1-stimulated control 0.11) | proteoglycan count in supernatant relative to count at initial addition of inorganic sulfuric acid ([5]; not stimulated 0.63, IL-1-stimulated control 1.06)
1 | O=P(O)(O)C(Sc1ccc2cc(O)ccc2c1)P(=O)(O)O [Example 6, 6-Hydroxy-2-naphthylthiomethanediphosphonic Acid] | 30.6 ± 12.5 | 90.8 ± 1.33 | 60.3 | 85.6 | 117.3 | 31.8 | 39.9 |  |  |  |  |  | 
2 | COc1ccc2cc(SC(P(=O)(O)O)P(=O)(O)O)ccc2c1 [Example 4, 6-Methoxy-2-naphthylthiomethanediphosphonic Acid] | 47.7 ± 2.18 | 94.8 ± 1.04 | 55.2 |  | 93.0 |  | 33.4 | 80.0 | 40.8 |  |  |  | 
3 | O=P(O)(O)C(Sc1ccc2ccccc2c1)P(=O)(O)O [Example 2, 2-naphthylthiomethane Diphosphonic Acid] | 18.8 ± 6.23 | 92.1 ± 0.43 | 75.2 |  | 94.5 |  | 44.3 | 76.8 | 35.2 | 41.7 | 29.4 ± 6.58 | 0.31 ± 0.011 | 0.78 ± 0.015
